Assay results published in patent US8575103B2, “Peptides and methods for inhibiting G alpha protein signaling” (The Board of Trustees of the University of Illinois, priority 2009, dated 2013).
“Also recorded” adds a separate entry of the source. Read-outs that look alike come from different tables or passages of the source. Where no end group is shown, it is not given here. The star is where a group is joined. Myristoyl = CCCCCCCCCCCCCC(=O)*

Assays:
[1] = test system: human platelets; assay: human platelet aggregation in platelet rich plasma (PRP); type: cell-based; conditions: for effect on human platelet aggregation induced by U46619 (TP): 0.5 μM U46619
Protocol: Trace (a) is control data from human platelet rich plasma (PRP) incubated with 500 μM of the Random Peptide (Myr-Leu-Ile-Arg-Pro-Tyr-Leu-His-Arg-Ala-Thr-Lys-Glu-Gly; SEQ ID NO:6), prior to stimulation with 15 μM of the PAR1 receptor agonist TRAP1. Trace (b) depicts data wherein PRP was treated with 30 μM Myr-G13SR1pep-2 prior to stimulation with 15 μM TRAP1. Trace (c) depicts data wherein PRP was treated with 50 μM Myr-G13SR1pep-2 prior to stimulation with 15 μM TRAP1. Trace (d) is control data showing PRP treated with 500 μM of the Random Peptide (SEQ ID NO:6) prior to stimulation with the 0.5 μM thromboxane receptor agonist U46619. Trace (e) depicts data wherein PRP was treated with 500 μM Myr-G13SR1pep-2 prior to stimulation with 0.5 μM U46619. Trace (f) is control data showing PRP treated with 500 μM of the Random Peptide (SEQ ID NO:6) prior to stimulation with 10 μM of the P2Y1/P2Y12 receptor agonist ADP. […] Trace (h) depicts control data showing PRP treated with 500 μM of the Random Peptide (SEQ ID NO:6) prior to stimulation with 40 μM of the PAR4 receptor agonist TRAP4. Trace (i) depicts data wherein PRP was treated with 500 μM Myr-G13SR1pep-2 prior to stimulation with 40 μM TRAP4.
Trace (a) depicts control data showing PRP treated with 500 μM of the Random Peptide (Myr-Gln-Arg-Ile-Arg-Phe-Cys-Ser-Glu-Gly-Val-Glu-Lys-Gly-His-Trp-Asn-Arg; SEQ ID NO:7) prior to stimulation with 15 μM of the PAR1 receptor agonist TRAP1. Trace (b) depicts data wherein PRP was treated with 500 μM Myr-GqSR2pep prior to stimulation with 15 μM TRAP1. Trace (c) is control data showing PRP treated with 500 μM Random Peptide (SEQ ID NO:7) prior to stimulation with the 0.5 μM of the thromboxane receptor agonist U46619. Trace (d) depicts data wherein PRP was treated with 50 μM Myr-GqSR2pep, prior to stimulation with 0.5 μM U46619. Trace (e) depicts data wherein PRP was treated with 150 μM Myr-GqSR2pep prior to stimulation with 0.5 μM U46619. Trace (f) is control data showing PRP treated with 500 μM Random Peptide (SEQ ID NO:7) prior to stimulation with 10 μM ADP. Trace (g) depicts data wherein PRP was treated with 50 μM Myr-GqSR2pep prior to stimulation with 10 μM ADP. Trace (h) depicts data wherein PRP was treated with 150 μM Myr-GqSR2pep prior to stimulation with 10 μM ADP. Trace (i) is control data showing PRP treated with 500 μM Random Peptide (SEQ ID NO:7) prior to stimulation with 40 μM of the PAR4 receptor agonist TRAP4. Trace (j) depicts data wherein PRP was treated with 150 μM Myr-GqSR2pep prior to stimulation with 40 μM of TRAP4.
Trace (a) is control data showing PRP treated with 500 μM of the Random Peptide (Myr-Gly-Ile-His-Glu-Trp-Glu-Val-Gly-Ser-Phe-Lys-Gly-Cys-Gln-Lys-Arg-Arg; SEQ ID NO:8) prior to stimulation with 15 μM of the PAR1 receptor agonist TRAP1. Trace (b) depicts data wherein PRP was treated with 500 μM Myr-GiSR2pep prior to stimulation with 15 μM TRAP1. Trace (c) is control data showing PRP treated with 500 μM Random Peptide (SEQ ID NO:8) prior to stimulation with the 0.5 μM of the thromboxane receptor agonist U46619. Trace (d) depicts data wherein PRP was treated with 500 μM Myr-GiSR2pep prior to stimulation with 0.5 μM U46619. Trace (e) is control data showing PRP treated with 500 μM Random Peptide (SEQ ID NO:8) prior to stimulation with 10 μM ADP. Trace (f) depicts data wherein PRP was treated with 150 μM Myr-GiSR2pep, prior to stimulation with 10 μM ADP. Trace (g) depicts data wherein PRP was treated with 500 μM Myr-GiSR2pep prior to stimulation with 10 μM ADP. Trace (h) is control data showing PRP treated with 500 μM Random Peptide prior (SEQ ID NO:8) to stimulation with 40 μM of the PAR4 receptor agonist TRAP4. Trace (i) depicts data wherein PRP was treated with 500 μM Myr-GiSR2pep prior to stimulation with 40 μM of TRAP4 […]

[2] = test system: human platelets; assay: as above; type: cell-based
[3] = test system: CD1 mice; assay: bleeding time in mice after intravenous administration; type: in vivo; conditions: 100 μl of 3.7 mM intravenously via tail vein, tail cut five minutes after administration
Protocol: Briefly, CD1 mice (25 grams) were anesthetized with sodium pentobarbital, and either 100 μl of vehicle or 100 μl of a vehicle solution containing 3.7 mM of each peptide or aspirin was administered intravenously via the tail vein. Five minutes following administration, the tail was cut 0.5 cm from the tip and immersed in PBS buffer (pH 7.4; 37EC). Cessation of bleeding was observed visually and the total bleeding time was recorded.

[4] = target: T1, α11bβ3 integrin (Homo sapiens, UniProt P05106+P08514+Q9Y490); assay: peptide affinity column with solubilized human platelets, western blot for α11bβ3; type: binding; conditions: immunoblot, bands at 130 kD and 115 kD
T1 construct: detected two bands, one at 130 kD and the other at 115 kD in solubilized human platelets; endogenous in cells; host or cells: solubilized human platelets
Source text: (§1) On this basis, subsequent experiments examined whether G13SR2pep peptide (SEQ ID NO:5) does indeed directly interact with α11bβ3 and/or one of its associated proteins in human platelets. In this respect, platelet α11bβ3 integrin is known to exist in a complex with two cytoplasmic proteins, i.e., talin and kindlin-3 (Tadokoro, et al. (2003) Science 302:103-6; Moser, et al. (2008) Nature Med. 14:325-30). To determine whether G13SR2pep, (SEQ ID NO:5) interacts with any of these proteins (or with the entire α11bβ3, talin, kindlin-3 complex), peptide affinity columns using G13SR2pep (SEQ ID NO:5) were employed. The affinity purified protein(s) from solubilized human platelets that specifically bound to the G13SR2pep peptide were eluted, and analyzed by western blot for α11bβ3 integrin, talin and kindlin-3. In similar experiments, the eluates from a peptide column using the G13SR2-Random Peptide (SEQ ID NO:9) were also analyzed. Immunoblot analysis with the α11bβ3 antibodies (Abcam) detected two bands, one at 130 kD and the other at 115 kD in solubilized human platelets as well as in the elution fraction obtained from the G13SR2pep (SEQ ID NO:5) affinity column. […] This was supported by similar experiments using talin antibodies and the kindlin 3 antibody (Abcam).

[5] = target: T2, talin (Homo sapiens, UniProt Q9Y490); assay: peptide affinity column with solubilized human platelets, western blot for talin; type: binding; conditions: solubilized human platelets, immunoblot; whole talin (220 kD), talin head domain (47 kD)
T2 construct: also purified whole talin (220 kD), the talin head domain (47 kD) and kindlin 3 (72 kD); endogenous in cells; host or cells: solubilized human platelets
Source text: as §1
Thus, the binding of G13SR2pep (SEQ ID NO:5) to the talin head domain serves as the basis for the ability of G13SR2pep to inhibit α11bβ3 integrin activation and platelet aggregation. As such, peptides or specific compounds fashioned to mimic or modify the switch region interaction with talin, α11bβ3 integrin or other α11bβ3 integrin-associated proteins would have profound effects on thrombosis and other integrin-linked disease processes.

[6] = target: T3, kindlin-3 (Homo sapiens, UniProt Q86UX7); assay: peptide affinity column with solubilized human platelets, western blot for kindlin-3; type: binding; conditions: immunoblot, kindlin 3 (72 kD)
T3 construct: also purified whole talin (220 kD), the talin head domain (47 kD) and kindlin 3 (72 kD); endogenous in cells; host or cells: solubilized human platelets
Source text: as §1

[7] = test system: α11bβ3 integrin; assay: platelet α11bβ3 integrin activation, FITC-PAC1 antibody binding by flow cytometry; type: cell-based, human; conditions: single substitution Arg232 to Ala versus parent G13SR2pep
Protocol: The platelet count in human PRP was adjusted to 1×10^6 platelets/ml. The platelets were then labeled with FITC-conjugated PAC1 antibody against activated α11bβ3 integrin, and the samples were analyzed by flow cytometry in a Beckman Coulter CyAn II Flow Cytometer. Trace (a) depicts resting platelets labeled with FITC-PAC-1 antibody. Trace (b) depicts platelets stimulated with 0.5 μM U46619 and labeled with FITC-PAC1 antibody. Trace (c) depicts platelets incubated with 500 μM of the Random Peptide (SEQ ID NO:9), followed by 0.5 μM U46619 stimulation and FITC-PAC1 labeling. Trace (d) depicts platelets incubated with 150 μM of the G13SR2pep, followed by 0.5 μM U46619 stimulation and FITC-PAC1 labeling.
Subsequent experiments examined the effect of G13SR2pep, (SEQ ID NO:5) on human platelet α11bβ3 integrin activation as measured by FITC-PAC-1 antibody binding.

[8] = test system: human platelets; conditions: Huang, et al. (2007) J. Biol. Chem. 282:10210-10222; cited from earlier work
[9] = PRP, 500 μM peptide, 15 μM TRAP1
[10] = PRP, 500 μM peptide, 40 μM TRAP4

T2 sequence (Q9Y490 1-433): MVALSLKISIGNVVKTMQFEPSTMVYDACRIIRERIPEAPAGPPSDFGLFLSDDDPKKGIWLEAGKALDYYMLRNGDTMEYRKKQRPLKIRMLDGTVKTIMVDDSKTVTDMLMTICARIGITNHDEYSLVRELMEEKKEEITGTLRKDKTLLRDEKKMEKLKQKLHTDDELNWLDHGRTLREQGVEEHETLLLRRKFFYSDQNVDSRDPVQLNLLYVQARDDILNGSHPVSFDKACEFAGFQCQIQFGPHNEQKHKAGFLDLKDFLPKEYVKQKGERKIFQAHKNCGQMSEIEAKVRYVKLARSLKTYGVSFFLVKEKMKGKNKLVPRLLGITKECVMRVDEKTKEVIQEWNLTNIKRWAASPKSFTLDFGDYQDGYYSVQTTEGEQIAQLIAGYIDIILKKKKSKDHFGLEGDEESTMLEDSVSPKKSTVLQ

## Myr-Val-Gly-Gly-Gln-Arg-Ser-Glu-Arg-Arg-Lys-Trp-Ile-His-Cys-Phe-Glu-Asn (Myristoyl-VGGQRSERRKWIHCFEN) [Myr-GqSR2pep, myristoylated Gαq switch region 2 peptide]
[1]; [9]
  effect on human platelet aggregation induced by TRAP1 (PAR1): ineffective
[1]; PRP, 50-150 μM peptide, 40 μM TRAP4
  inhibition of human platelet aggregation induced by PAR4 receptors: dose-dependent inhibition
[2]; PRP, 50-150 μM peptide, 0.5 μM U46619
  inhibition of human platelet aggregation induced by TP receptors: dose-dependent inhibition
[2]; PRP, 50-150 μM peptide, 10 μM ADP
  inhibition of human platelet aggregation induced by ADP receptors: dose-dependent inhibition

## CC(=O)Oc1ccccc1C(=O)O [ASA, aspirin, reference compound]
[3]
  bleeding time: increase

## RSERKRWFECFD [G13SR2pep-truncated, truncated version of the G13 Switch Region 2 peptide]
[2]; PRP, 150 μM peptide, 15 μM TRAP1 or 0.5 μM U46619 (FIG. 5)
  inhibition of human platelet aggregation compared with full length G13SR2pep: inhibited human platelet aggregation with the same potency

## Myr-Leu-Leu-Ala-Arg-Arg-Pro-Thr-Ala-Gly-Ile-His-Glu-Tyr (Myristoyl-LLARRPTAGIHEY) [Myr-G13SR1pep-2, myristoylated Gα13 switch region 1 peptide, Lys changed to Ala]
[1]; PRP, 500 μM peptide
  effect on human platelet aggregation induced by U46619 (TP): no measurable effect
[1]; PRP, 500 μM peptide, 10 μM ADP
  effect on human platelet aggregation induced by ADP: no measurable effect
[1]; [9]
  effect on human platelet aggregation induced by TRAP1 (PAR1): no measurable effect
[1]; [10]
  effect on human platelet aggregation induced by TRAP4 (PAR4): no measurable effect
[1]; PRP, 30-50 μM peptide, 15 μM TRAP1
  inhibition of PAR1-induced human platelet aggregation: progressive inhibition; also recorded: blocked
[1]; human PRP
  potency relative to the original peptide (Myr-G13SR1pep) for inhibition of PAR1-induced human platelet aggregation: ten-fold increased potency
[3]
  bleeding time: increased bleeding times; also recorded: substantially increases

## GFDEWEVSFKGCQRRSR [Random Peptide (SEQ ID NO:9), random peptide control for G13SR2pep, reference compound]
[4]
  α11bβ3 in affinity column eluate (interaction with peptide): did not reveal the presence
[5]
  talin in affinity column eluate: did not reveal the presence
[6]
  kindlin 3 in affinity column eluate: did not reveal the presence
[2]; PRP, 75-150 μM G13SR2pep (Random Peptide 500 μM), 0.5 μM U46619
  inhibition of human platelet aggregation stimulated by U46619: without effect
[2]; PRP, 75-150 μM G13SR2pep (Random Peptide 500 μM), 10 μM ADP
  inhibition of human platelet aggregation stimulated by ADP: without effect
[2]; PRP, 75-150 μM G13SR2pep (Random Peptide 500 μM), 15 μM TRAP1
  inhibition of human platelet aggregation stimulated by TRAP1: without effect
[2]; PRP, 75-150 μM G13SR2pep (Random Peptide 500 μM), 50 μM TRAP4
  inhibition of human platelet aggregation stimulated by TRAP4: without effect

## VGGQRSERKAWFECFDS [G13SR2mutant pep, G13SR2pep with single substitution at amino acid 232 from Arg to Ala, reference compound]
[7]
  ability to block integrin activation: completely eliminated the ability
[2]; single substitution Arg232 to Ala versus parent G13SR2pep
  ability to block platelet activation: completely eliminated the ability

## Myr-Leu-Leu-Ala-Arg-Arg-Pro-Thr-Lys-Gly-Ile-His-Glu-Tyr (Myristoyl-LLARRPTKGIHEY) [Myr-G13SR1pep, original permeable peptide representing SR1 of the Gα13 subunit (Huang, et al. 2007)]
[8]
  inhibition of PAR1-induced human platelet aggregation: selectively and dose-dependently inhibited

## Myr-Val-Gly-Gly-Gln-Arg-Ser-Glu-Arg-Lys-Lys-Trp-Ile-His-Cys-Phe-Glu-Gly (Myristoyl-VGGQRSERKKWIHCFEG) [Myr-Gi SR2pep, myristoylated Gαi switch region 2 peptide]
[1]; PRP, 500 μM peptide
  effect on human platelet aggregation induced by U46619 (TP): without affecting
[1]; [9]
  effect on human platelet aggregation induced by TRAP1 (PAR1): without affecting
[1]; [10]
  effect on human platelet aggregation induced by TRAP4 (PAR4): without affecting
[1]; PRP, 150-500 μM peptide, 10 μM ADP
  inhibition of ADP-induced aggregation: dose-dependent (150-500 μM) inhibition
